The subject of test [1] is rat retinal ganglion cells (RGCs) and Nkx2.1-GFP+ sorted OPCs. Description: Co-culture and myelination assay with rat RGC and hESC-derived OPCs. The test is classed as cell-based, rat; human. From the text:
Retinae were dissected from P6 Sprague-Dawley rat pups (AEC #1121/2011/M). RGCs were purified according to the published immunopanning protocol (Deliyanti and Wilkinson-Berka, 2015; Watkins et al., 2008). Details of the RGC preparation are described in Supplemental Experimental Procedure. The RGC growth medium was changed every third day and cultures were maintained for 9 days. Pre-OLs from Nkx2.1-GFP+ cells at stage VI day 10, were FACS sorted according to O4 antibody labeling. O4+ sorted cells were then co-cultured with RGCs at a density of 20,000/well under 3 different conditions: T3 with 0.01% ethanol, 10 ng/mL DITPA, and 40 ng/mL T3 with DITPA in myelination medium (see Supplemental Experimental Procedure). The medium was changed every 3 days and all co-cultures were fixed after 7 days, followed by immunocytochemistry. Cells were stained with a monoclonal rat anti-mCherry (Life Technologies, M11217, 1:1,000); monoclonal mouse anti-NF-200 (Sigma-Aldrich, N0142, 1:200); and polyclonal rabbit anti-MBP (Millipore, AB980, 1:200). Followed by incubation of appropriate Alexa Fluor-labeled secondary antibodies (Life technologies).
In RGC-OPC co-cultures, myelin segments were counted manually. 10 fields (×20 objective) were randomly selected and captured from each coverslip with a confocal microscope (Nikon A1 inverted). For representative images, 10 z-stack images (0.25 μm intervals) were captured, analysed and processed for 3D volume rendering by Imaris version 7.6.4. OLs were scored according to their morphology and defined as either “resting” (processes not touching axons); “contacting” (processes touching axons but not wrapping); and “ensheathing” (processes aligned with and wrapping axons). A myelination index (i.e. axons myelinated) was calculated by: the number of MBP+ membrane, ensheathing the NF200+ axons/the total number of NF200+ axons.
The dissected retinae were digested using papain dissociation system according to the manufacturer's protocol (Worthington). […]

Test [2] relates to Nkx2.1-GFP sorted cells transduced with slc16a2 shRNA lentivirus. Description: Apoptosis assay (cleaved caspase-3) after stable knockdown of slc16a2. It counts as cell-based. Particulars: DITPA from 3 days post-LV-transduction. As to the method: Nkx2.1-GFP sorted cells at the end of stage VI or V were transduced with MOI of 10 in appropriate stage-specific medium containing polybrene (5 μg/mL, Sigma-Aldrich). Efficiency of transduction was validated by analyzing mCherry+ cells by flow cytometry and efficiency of knockdown was validated by analyzing the slc16a2 transcript level by qRT-PCR 72 hours post-transduction. An apoptosis assay was performed on cells either, treated with or without DITPA for 2 days from 72 hours post-transduction, then fixed. Cells were stained with monoclonal rat anti-mCherry (M11217, Life Technologies, 1:1,000), polyclonal rabbit anti-cleaved caspase-3 (9661, Cell Signaling Technology, 1:400) and DAPI (Life Technologies) then analyzed by confocal microscopy (Nikon A1 Inverted using a ×20 water objective lens). Apopotic OLs were defined as those mCherry-positive cells with cleaved caspase-3+ nuclei that were also condensed and fragmented as assessed by DAPI. The data were plotted as the number of cleaved caspase-3/mCherry+ cells divided by total number of mCherry+ cells.

Entries after “also recorded” stand apart in the source; their conditions may differ.

With `O=C(O)CCc1cc(I)c(Oc2ccc(O)cc2)c(I)c1` [DITPA, 3,5-Diiodothyropropionic acid], the “percentage of myelination (number of myelinated axons/total number of axons)” value in test [1] (7 days co-culture, 10 ng/mL DITPA, compared with T3 alone) was “significantly enhanced”. The “contacting or ensheathing MBP+ OLs” value in test [1] (7 days co-culture, 10 ng/mL DITPA, versus T3 alone) is on record as “more”. The “myelination of rat retinal ganglion cells” value in test [1] (FIG. 6) was “Depicts an experiment which shows that DITPA promotes the myelination of rat”. Moreover, the “cell death / apoptosis mediated by slc16a2 knock-down” value in test [2] is “significantly reduced cell death; also recorded: Depicts an experiment which shows that DITPA rescues oligodendrocyte death”.
